Calls of active or inactive are those of the source. The calls are words filed in the database; no cut-off is given here.
Experiments:
DU-145 = assay: Cytotoxicity against human DU-145 cells assessed as inhibition of cell growth incubated for 72 hrs by CCK8 assay; format: functional, cell-based; conditions: DU-145, 72 h
SK-OV-3 [1] = assay: Inhibition of tumor sphere formation in agarose-treated human SK-OV-3 cells assessed as fold decrease in number of formed spheres by imaging analysis; format: functional
MIA PaCa-2 = assay: Cytotoxicity against human MIA PaCa-2 cells assessed as inhibition of cell growth incubated for 72 hrs by CCK8 assay; format: functional, cell-based; conditions: MIA PaCa-2, 72 h
ACHN = assay: Cytotoxicity against human ACHN cells assessed as inhibition of cell growth incubated for 72 hrs by CCK8 assay; format: functional, cell-based
A2780 = assay: Antitumor activity against CD44 negative human A2780 cells assessed as reduction in cell viability incubated for 72 hrs by CCK8 assay; format: functional, cell-based; conditions: A2780, 72 h
CAL-27 = assay: Cytotoxicity against human CAL-27 cells assessed as inhibition of cell growth incubated for 72 hrs by CCK8 assay; format: functional, cell-based; conditions: CAL-27, 72 h
MKN-45 = assay: Cytotoxicity against human MKN-45 cells assessed as inhibition of cell growth incubated for 72 hrs by CCK8 assay; format: functional, cell-based; conditions: MKN-45, 72 h
HeLa = assay: Cytotoxicity against human HeLa cells assessed as inhibition of cell growth incubated for 72 hrs by CCK8 assay; format: functional, cell-based
SK-OV-3 [2] = assay: Inhibition of cell migration in human SK-OV-3 cells at 5 uM incubated for 24 hrs by microscope based wound healing assay; format: functional
SK-OV-3 [3] = assay: Inhibition of AKT phosphorylation in human SK-OV-3 cells at 5 uM incubated for 24 hrs by Western blot analysis; format: cell-based
SK-OV-3 [4] = assay: Antitumor activity against CD44 positive human SK-OV-3 cells assessed as reduction in cell viability incubated for 72 hrs by CCK8 assay; format: functional, cell-based; conditions: SK-OV-3, 72 h
MDA-MB-231 = assay: Cytotoxicity against human MDA-MB-231 cells assessed as inhibition of cell growth incubated for 72 hrs by CCK8 assay; format: functional, cell-based; conditions: MDA-MB-231, 72 h
A549 = assay: Cytotoxicity against human A549 cells assessed as inhibition of cell growth incubated for 72 hrs by CCK8 assay; format: functional, cell-based; conditions: A549, 72 h
[5] = biological target: Vascular endothelial growth factor receptor 2 (Homo sapiens) (UniProt P35968); assay: Inhibition of VEGFR2 phosphorylation in human SK-OV-3 cells at 5 uM incubated for 24 hrs by Western blot analysis; format: cell-based
Sequence of Vascular endothelial growth factor receptor 2 (Homo sapiens) (P35968 whole entry): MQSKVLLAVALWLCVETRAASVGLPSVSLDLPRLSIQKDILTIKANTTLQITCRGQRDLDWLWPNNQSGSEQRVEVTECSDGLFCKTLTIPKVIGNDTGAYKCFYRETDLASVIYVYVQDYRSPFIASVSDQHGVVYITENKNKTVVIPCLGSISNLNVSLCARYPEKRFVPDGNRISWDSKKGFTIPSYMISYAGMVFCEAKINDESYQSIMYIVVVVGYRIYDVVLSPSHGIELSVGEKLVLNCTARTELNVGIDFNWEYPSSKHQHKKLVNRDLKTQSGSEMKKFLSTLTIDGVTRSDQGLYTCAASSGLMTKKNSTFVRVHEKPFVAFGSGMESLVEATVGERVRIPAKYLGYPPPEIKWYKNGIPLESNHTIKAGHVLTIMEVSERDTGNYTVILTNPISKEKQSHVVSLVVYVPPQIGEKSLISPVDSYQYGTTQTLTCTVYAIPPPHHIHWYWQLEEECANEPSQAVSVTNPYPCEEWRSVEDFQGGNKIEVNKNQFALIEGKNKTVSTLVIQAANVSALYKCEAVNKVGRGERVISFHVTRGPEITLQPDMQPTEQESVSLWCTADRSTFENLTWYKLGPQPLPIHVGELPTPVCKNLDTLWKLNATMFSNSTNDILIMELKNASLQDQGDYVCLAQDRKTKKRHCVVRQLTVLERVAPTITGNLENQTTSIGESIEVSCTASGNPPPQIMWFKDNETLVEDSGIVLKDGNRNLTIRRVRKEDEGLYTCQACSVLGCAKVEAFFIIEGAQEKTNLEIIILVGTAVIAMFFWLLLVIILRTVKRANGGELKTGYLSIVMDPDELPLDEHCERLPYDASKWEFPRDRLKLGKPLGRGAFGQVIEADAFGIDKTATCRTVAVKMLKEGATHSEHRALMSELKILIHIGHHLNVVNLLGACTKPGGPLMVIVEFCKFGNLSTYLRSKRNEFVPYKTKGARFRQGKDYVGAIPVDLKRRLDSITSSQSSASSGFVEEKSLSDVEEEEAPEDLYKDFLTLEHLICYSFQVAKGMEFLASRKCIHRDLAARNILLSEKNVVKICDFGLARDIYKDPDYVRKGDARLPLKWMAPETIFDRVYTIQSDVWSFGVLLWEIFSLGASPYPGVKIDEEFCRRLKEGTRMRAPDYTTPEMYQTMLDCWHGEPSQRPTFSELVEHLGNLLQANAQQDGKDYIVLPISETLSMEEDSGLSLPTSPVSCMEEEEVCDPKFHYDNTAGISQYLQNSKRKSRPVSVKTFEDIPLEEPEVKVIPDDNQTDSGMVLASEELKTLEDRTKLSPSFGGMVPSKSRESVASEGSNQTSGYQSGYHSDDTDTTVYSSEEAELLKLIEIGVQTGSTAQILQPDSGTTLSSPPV

A-431 = assay: Cytotoxicity against human A-431 cells assessed as inhibition of cell growth incubated for 72 hrs by CCK8 assay; format: functional, cell-based; conditions: A-431, 72 h
SK-OV-3/CDDP = assay: Cytotoxicity against human SK-OV-3/CDDP cells assessed as inhibition of cell proliferation incubated for 72 hrs by CCK8 assay; format: functional, cell-based
SK-OV-3 [6] = assay: Inhibition of cell invasion in human SK-OV-3 cells incubated for 24 hrs by crystal violet staining based transwell invasion assay; format: functional; conditions: dose 5.0 µM
MCF7 = assay: Cytotoxicity against human MCF7 cells assessed as inhibition of cell growth incubated for 72 hrs by CCK8 assay; format: functional, cell-based; conditions: MCF7, 72 h
HCCLM3 = assay: Cytotoxicity against human HCCLM3 cells assessed as inhibition of cell growth incubated for 72 hrs by CCK8 assay; format: functional, cell-based; conditions: HCCLM3, 72 h
SK-OV-3 [7] = assay: Inhibition of tumor sphere formation in agarose-treated human SK-OV-3 cells assessed as decrease in number of formed spheres at 10 nM incubated for 9 days by imaging analysis; format: functional, cell-based; conditions: time 9.0 day

Row | SMILES | IC50 (DU-145) [µM] | fold change (FC) (SK-OV-3 [1]) | IC50 (MIA PaCa-2) [µM] | IC50 (ACHN) [µM] | IC50 (A2780) [µM] | IC50 (CAL-27) [µM] | IC50 (MKN-45) [µM] | IC50 (HeLa) [µM] | inhibition (SK-OV-3 [2]) | inhibition (SK-OV-3 [3]) | IC50 (SK-OV-3 [4]) [µM] | IC50 (MDA-MB-231) [µM] | IC50 (A549) [µM] | inhibition [5] | IC50 (A-431) [µM] | IC50 (SK-OV-3/CDDP) [µM] | inhibition (SK-OV-3 [6]) | IC50 (MCF7) [µM] | IC50 (HCCLM3) [µM] | inhibition (SK-OV-3 [7])
1 | CC[C@@H](C(=O)[O-])C1CC[C@H](C)C([C@@H](C)[C@H](O)[C@H](C)C(=O)[C@H](CC)C2O[C@]3(C=C[C@@H](NC(=O)CCSSc4ccccc4)[C@]4(CC[C@@](C)(C5CC[C@](O)(CC)[C@H](C)O5)O4)O3)[C@H](C)C[C@@H]2C)O1.[Na+] (stereo not given in full) | 30.9 | 4.6 | 1.14 | 7.37 | 0.11 | 3.73 | 1.47 | 3.76 | Active | Active | 4.39 | 0.98 | 14.4 | Active | 2.95 | 4.45 | Dose-Dependent Effect | 8.23 | 1.33 | –
2 | CC(=O)O[C@H]1C(=O)[C@@]2(C)[C@H]([C@H](OC(=O)c3ccccc3)[C@]3(O)C[C@H](OC(=O)[C@H](O)[C@@H](NC(=O)c4ccccc4)c4ccccc4)C(C)=C1C3(C)C)[C@]1(OC(C)=O)CO[C@@H]1C[C@@H]2O | – | – | – | – | – | – | – | – | – | – | – | – | – | – | – | – | – | – | – | Active

— ChEMBL document CHEMBL5614385, “A peptide-salinomycin conjugate with a bystander effect reduces the stemness characteristics of ovarian cancer cells and enhances drug sensitivity” (Eur J Med Chem, 2024)
